What was measured:
Format in all cases: physicochemical
[1] = Water solubility of Compound 1 with increasing pH (FIG. 1)
Excerpt: FIG. 1 depicts the water solubility of Compound 1 with increasing pH. The aqueous pharmaceutical compositions of the invention include a solubilizer/complexant component, to aid in solubilizing the ERβ selective ligand. […] Accordingly, present compositions include a solubilizer/complexant component to aid in solubilization. Generally, the solubilizer/complexant component consists of one or more solubilizing and/or complexing agents known to be useful in the preparation of pharmaceutical formulations. In some embodiments, the solubilizer/complexant component consists of a single solubilizing and/or complexing agent. In some embodiments, the solubilizer/complexant component includes, but is not limited to, cosolvents such as glycerine, ethanol, propylene glycol, sorbitol and polyethylene glycol, and surfactants such as the polyoxyethylene sorbitan fatty acid esters (e.g., polysorbate 80), polyoxyethylene castor oil derivatives (e.g., cremophor EL, cremophor RH40), vitamin E TPGS (d-alpha-tocopheryl polyethylene glycol), solutol (polyethylene glycol esters of hydroxystearate), polyoxyethylene-polyoxypropylene copolymers, polyoxyethylene fatty alcohol ethers, polyethoxylated fatty acid esters, polyoxyethylene-glycerol fatty esters, polyglycolized glycerides, polyethoxylated cholesterols, polyethoxylated sterols, and polyethoxylated vegetable oils. In some embodiments, the solubilizer/complexant component includes, but is not limited to, cosolvents such as glycerine, ethanol, propylene glycol, and polyethylene glycol, and surfactants such as the polyoxyethylene sorbitan fatty acid esters, polyoxyethylene castor oil derivatives, vitamin E TPGS, and solutol. […] Examples of some preferred solubilizing and/or complexing agents include cyclodextrins (including alpha, beta and gamma cyclodextrins) and substituted cyclodextrins, for example hydroxypropyl beta-cyclodextrin and sulfobutyl ether beta-cyclodextrin, with hydroxypropyl beta-cyclodextrin being preferred. […]

[2] = Chemical stability of a pharmaceutical composition of Compound 1 (potency, degradation impurities by HPLC); conditions: for Potency (percent of the initial API concentration) / Impurity (MW not given) / Impurity MW 279 / Impurity MW 556 / Impurity MW 574: 15% HPBCD, pH 9.2; for Impurity (MW not given) / Impurity MW 279 / Impurity MW 556 / Impurity MW 574: HPLC
Description: As used herein, potency refers to the percent of the initial API concentration.
The potency of each composition was determined, and the concentration of impurities from degradation was measured by HPLC, as shown in Table 4.

[3] = Solubility of Compound 1 formulated with HPBCD (FIG. 2, FIG. 3)
Excerpt: FIG. 2 depicts the water solubility of the unionized form of Compound 1 with increasing concentrations of hydroxypropyl-beta-cyclodextrin (HPBCD). FIG. 3 depicts the water solubility of the ionized form of Compound 1 at pH 9.0 and 10.3 with increasing concentrations of hydroxypropyl-beta-cyclodextrin (HPBCD).

[4] = Serial dilution study with phosphate buffered saline as diluent and blood model; precipitate observed for two minutes
Description: A serial dilution study was also undertaken to assess the risk of Compound 1 precipitating upon injection. Phosphate buffered saline (PBS) was used as the diluent and blood model. Accordingly, 10 mg/mL (at pH 9.2) and 30 mg/mL (at pH 10.5) compositions of Compound 1 were prepared by the method described in Example 1, both having 15% HPBCD. The solutions were then serially diluted with PBS.

solubility at the pH maxima considered safe for IV administration ([1]; about pH 10): poorly soluble
solubility at lower pH ([1]; lower pH): relatively insoluble
solubility in water ([1]; water): insoluble in water
Potency (percent of the initial API concentration) ([2]; stored 1 mo. at 25 °C): 100.8
Potency (percent of the initial API concentration) ([2]; stored 1 mo. at 40 °C): 100.4
Impurity (MW not given) ([2]; stored 1 mo. at 40 °C): 0.06
Impurity MW 279 ([2]; stored 1 mo. at 40 °C): 0.07
Impurity MW 556 ([2]; stored 1 mo. at 40 °C): 0.33
Impurity MW 574 ([2]; stored 1 mo. at 40 °C): 0.03
Potency (percent of the initial API concentration) ([2]; stored 3 mo. at 4 °C): 99.9
Potency (percent of the initial API concentration) ([2]; stored 3 mo. at 25 °C): 98.9
Impurity (MW not given) ([2]; stored 3 mo. at 25 °C): 0.02
Impurity MW 279 ([2]; stored 3 mo. at 25 °C): 0.03
Impurity MW 556 ([2]; stored 3 mo. at 25 °C): 0.11
Potency (percent of the initial API concentration) ([2]; stored 3 mo. at 40 °C): 98.1
Impurity (MW not given) ([2]; stored 3 mo. at 40 °C): 0.12
Impurity MW 279 ([2]; stored 3 mo. at 40 °C): 0.16
Impurity MW 556 ([2]; stored 3 mo. at 40 °C): 0.62
Impurity MW 574 ([2]; stored 3 mo. at 40 °C): 0.06
Potency (percent of the initial API concentration) ([2]; stored 6 mo. at 4 °C): 98.0
Impurity MW 556 ([2]; stored 6 mo. at 4 °C): 0.06
Potency (percent of the initial API concentration) ([2]; stored 6 mo. at 25 °C): 97.7
Impurity (MW not given) ([2]; stored 6 mo. at 25 °C): 0.04
Impurity MW 279 ([2]; stored 6 mo. at 25 °C): 0.05
Impurity MW 556 ([2]; stored 6 mo. at 25 °C): 0.36
Impurity MW 574 ([2]; stored 6 mo. at 25 °C): 0.03
Potency (percent of the initial API concentration) ([2]; stored 6 mo. at 40 °C): 93.3
Impurity (MW not given) ([2]; stored 6 mo. at 40 °C): 0.3
Impurity MW 279 ([2]; stored 6 mo. at 40 °C): 0.4
Impurity MW 556 ([2]; stored 6 mo. at 40 °C): 1.57
Impurity MW 574 ([2]; stored 6 mo. at 40 °C): 0.11
molecular weight 556 impurity ([2]; comparable formulation without the HPBCD (5 mg/mL, 50 mM glycine buffer, pH 11), at three days): 0.34%
increase in solubility ([3]; 15% HPBCD at pH 9, compared with free acid form at pH 6.3-7.6 formulated with 15% HPBCD): 10 fold
increase in solubility ([3]; 15% HPBCD at pH 10.3, compared with free acid form at pH 6.3-7.6 formulated with 15% HPBCD): 30 fold
Precipitate at 2 min. ([4]; 10 mg/mL (pH 9.2) composition, 15% HPBCD, diluted with PBS to 0.009766 mg/mL, pH 7.43): none
Precipitate at 2 min. ([4]; 10 mg/mL (pH 9.2) composition, 15% HPBCD, diluted with PBS to 0.019531 mg/mL, pH 7.45): none
Precipitate at 2 min. ([4]; 10 mg/mL (pH 9.2) composition, 15% HPBCD, diluted with PBS to 0.039063 mg/mL, pH 7.47): none
Precipitate at 2 min. ([4]; 10 mg/mL (pH 9.2) composition, 15% HPBCD, diluted with PBS to 0.078125 mg/mL, pH 7.57): none
Precipitate at 2 min. ([4]; 10 mg/mL (pH 9.2) composition, 15% HPBCD, diluted with PBS to 0.15625 mg/mL, pH 7.75): none
Precipitate at 2 min. ([4]; 10 mg/mL (pH 9.2) composition, 15% HPBCD, diluted with PBS to 0.3125 mg/mL, pH 8.01): none
Precipitate at 2 min. ([4]; 10 mg/mL (pH 9.2) composition, 15% HPBCD, diluted with PBS to 0.625 mg/mL, pH 8.36): none
Precipitate at 2 min. ([4]; 10 mg/mL (pH 9.2) composition, 15% HPBCD, diluted with PBS to 1.25 mg/mL, pH 8.65): none
Precipitate at 2 min. ([4]; 10 mg/mL (pH 9.2) composition, 15% HPBCD, diluted with PBS to 2.5 mg/mL, pH 8.83): none
Precipitate at 2 min. ([4]; 10 mg/mL (pH 9.2) composition, 15% HPBCD, diluted with PBS to 5 mg/mL, pH 9.04): none
Precipitate at 2 min. ([4]; 30 mg/mL (pH 10.5) composition, 15% HPBCD, diluted with PBS to 0.029297 mg/mL, pH 7.55): yes
Precipitate at 2 min. ([4]; 30 mg/mL (pH 10.5) composition, 15% HPBCD, diluted with PBS to 0.058594 mg/mL, pH 7.68): yes
Precipitate at 2 min. ([4]; 30 mg/mL (pH 10.5) composition, 15% HPBCD, diluted with PBS to 0.117188 mg/mL, pH 8): yes
Precipitate at 2 min. ([4]; 30 mg/mL (pH 10.5) composition, 15% HPBCD, diluted with PBS to 0.234375 mg/mL, pH 8.45): yes
Precipitate at 2 min. ([4]; 30 mg/mL (pH 10.5) composition, 15% HPBCD, diluted with PBS to 0.46875 mg/mL, pH 8.82): none
Precipitate at 2 min. ([4]; 30 mg/mL (pH 10.5) composition, 15% HPBCD, diluted with PBS to 0.9375 mg/mL, pH 9): none
Precipitate at 2 min. ([4]; 30 mg/mL (pH 10.5) composition, 15% HPBCD, diluted with PBS to 1.875 mg/mL, pH 9.32): none
Precipitate at 2 min. ([4]; 30 mg/mL (pH 10.5) composition, 15% HPBCD, diluted with PBS to 3.75 mg/mL, pH 9.6): none
Precipitate at 2 min. ([4]; 30 mg/mL (pH 10.5) composition, 15% HPBCD, diluted with PBS to 7.5 mg/mL, pH 9.9): none
Precipitate at 2 min. ([4]; 30 mg/mL (pH 10.5) composition, 15% HPBCD, diluted with PBS to 15 mg/mL, pH 10.17): none
SMILES: N#Cc1cc(-c2ccc(O)c(F)c2)cc2ccc(O)cc12 [Compound 1, 3-(3-Fluoro-4-hydroxy-phenyl)-7-hydroxy-naphthalene-1-carbonitrile]
concentration of Compound 1 on dilution relative to water solubility (FIG. 4) ([4]; 10 mg/mL and 30 mg/mL solutions, 15% HPBCD, serial dilution with PBS): maintained above the water solubility for sufficient time for complete dilution in the blood stream
tendency to precipitate upon dilution ([4]; 10 mg/mL solution versus 30 mg/mL solution, both 15% HPBCD, diluted with PBS): lower tendency to precipitate upon dilution

— patent US20070191442A1, “Aqueous Pharmaceutical Formulations of ER-beta Selective Ligands” (priority 2006, published 2007)
